Results from patent US5420122A, “3-pyrrolidinylthio-1-azabicyclo-[3.2.0]hept-2-ene-2-carboxylic acid compounds” (Fujisawa Pharmaceutical Co., Ltd., priority 1986, dated 1995).
Converted amounts (≈) assume the structure as drawn.

Test system: Proteus vulgaris 49
Test: in vitro antimicrobial activity, two-fold agar-plate dilution method (MIC)
Assay type: cell-based
Settings: heart infusion agar, 37° C., 20 hours, 10^6 viable cells per ml
Experimental: in vitro Antimicrobial Activity
in vitro Antimicrobial Activity was determined by the two-fold agar-plate dilution method as described below.
One loopful of an overnight culture of each test strain in Trypticase-soy broth (10^6 viable cells per ml) was streaked on heart infusion agar (HI-agar) containing graded concentrations of the test compound, and the minimal inhibitory concentration (MIC) was expressed in terms of ug/ml after incubation at 37° C. for 20 hours.

Work on `C[C@@H](O)[C@H]1C(=O)N2C(C(=O)O)=C(S[C@@H]3CN[C@H](c4nc[nH]n4)C3)[C@H](C)[C@H]12` [Test Compound, (4R,5S,6S )-6-[(1R) -1-Hydroxyethyl]-4-methyl-7-oxo-3-[(2S,4S)-2-(1H-1,2,4-triazol-3-yl)pyrrolidin-4-ylthio]-1-azabicyclo [3.2.0]hept-2-ene-2-carboxylic acid] yielded an MIC of 0.05 µg/mL (≈ 0.132 µM).
